Assay results as given in patent publication US20150212068A1, “Cholyl-L-Lysyl-Fluorescein Assay” (Novassay SA, priority 2012, published 2015).
“Also recorded” adds a separate entry of the source.

How the values were obtained:
[1] = Stability of CLF in whole human blood at 37° C. (Test 1), HPLC-MS/MS; assay type: in vitro ADME; conditions: for CLF concentration: whole human blood spiked 100 ng/ml, mean ± SEM (n = 2); for CLF remaining: whole human blood, vs To
Procedure: Fifty microliters (50 μl) of the working solution of CLF were added to 5 ml of human EDTA blood. The final concentration of CLF in blood was of 100 ng/ml. One aliquot of 1 ml of blood was taken (To) and the remaining solution was incubated at 37° C. in a water bath for 30 min, 120 min and 24 h. At the end of each incubation time, 1 ml of blood was taken and plasma was prepared by centrifugation of samples at 2000 g (4° C.) for 10 min. Two equal aliquots of 200 μl were prepared and stored at −70° C. until further analysis. […] Thus, a stock solution of IS at 100 μg/ml in acetonitrile was 50-fold diluted in acetonitrile in order to obtain a final concentration of 2 μg/ml. Then, 200 μl of this solution were added to each plasma sample in order to precipitate the proteins. Samples were vortexed/mixed and centrifuged 5 min at 20,000 g (4° C.). After centrifugation, the clear supernatant (around 250 μl) was transferred into 1.2 ml HPLC glass vials and sealed. Samples were placed into the refrigerated autosampler and 20 μl were injected into the HPLC-MS/MS system. Test samples were injected twice. […] The injected volume of sample was 20 μl and the “full loop” mode was applied. The temperature of the analytical column was kept at 30° C. CLF and its IS were separated on an Acclaim 120 C18 column (5 μm, 2.1×100 mm, Dionex) by elution with a linear gradient of acetonitrile in water as described in Table 6. An ion trap mass spectrometer equipped with an ESI interface was operated in the positive ionization mode. For each compound, the most abundant ion formed in MS was selected for MS/MS fragmentations. In order to increase the sensitivity and the specificity of the method, the MRM mode was selected. The most specific daughter ions formed in MS/MS were used for quantification.

[2] = Effect of light exposure on CLF-spiked serum, 48 hrs at room temperature, CLF ELISA; assay type: physicochemical, human; conditions: for % difference (light from dark) / observed Light / observed dark: serum pool; for % difference (light from dark) / observed dark: 48 hrs at RT; for observed Light: 48 hrs at RT near light source; for observed dark: covered with aluminium foil
Procedure: (§1) These conditions were used for all assays described in Phase 2a (above) and Phase 2b (below). See Appendix B and C for buffer and conjugate formulations respectively: • Add 25 μl/well of sample or standard (0-1000 ng/ml CLF in Buffer #24) to the wells of a streptavidin-coated microtitre plate (NovAssay, F2SAC). • Add 100 μl/well of fluorescein-biotin (Sigma B9431) at 20 ng/ml in Buffer #24+0.2% w/v ANS (Sigma 10417). • Add 100 μl/well of anti-fluorescein HRP (NovAssay, DV047/17-3) at 100 ng/ml in Buffer #24. • Incubate the plate for 30 minutes at room temperature. • Wash the plate 3 times with 800 μl/well Buffer #29 and tap the plate dry. • Add 100 μl/well of SureBlue Reserve TMB Substrate (KPL) and incubate the plate for 10 minutes at room temperature. • Stop the substrate reaction by adding 100 μl/well of 1M HCl and read the absorbance at 450 nm wavelength (ThermoFisher Scientific, Multiskan FC).
For the study of the effect of light, 3 pools of serum were spiked with CLF at 31.25, 125 and 500 ng/ml. One aliquot of each pool was put near a light source (fluorescent bulb 58 watts, at a distance of 85 cm). The “dark” sample was covered with aluminium foil. The samples were at RT (˜18-22° C.). Storage time was 48 hrs.

[3] = Stability (LTD samples) of CLF in plasma measured with the CLF ELISA; assay type: in vitro ADME, human
Procedure: as §1
The samples provided (LTD) included 8 “standards” (no details of their preparation were given, apart from the concentration which ranged from 0 to 100 ng/ml) and samples which were presumed to be stability samples (no details of their preparation were given). The stability work appeared to have been undertaken on 3 individual donor samples. Note, that 2 of the donor samples were heavily haemolysed.

SMILES: CC(CCC(=O)NC(CCCCNC(=S)Nc1ccc(-c2c3ccc(=O)cc-3oc3cc(O)ccc23)c(C(=O)O)c1)C(=O)O)C1CCC2C3C(O)CC4CC(O)CCC4(C)C3CC(O)C12C [CLF, Cholyl-L-Lysyl-Fluorescein]
- CLF stability in whole human blood ([1]; 37° C., 24 hours, 100 ng/ml): stable during 24 h; also recorded: stable over 24 hours
- plasmatic concentrations measured ([1]; whole blood spiked with 100 ng/ml, 37° C., 0-24 h): 165.1 to 180.3 ng/mL
- repartition of CLF in blood ([1]; whole blood spiked with CLF, plasma prepared by centrifugation): mainly distributed in the plasmatic fraction; also recorded: mainly distributed in the plasma fraction
- percentage of compound remaining (by comparing with content at To), lowest over incubation ([1]; whole blood, 37° C., up to 24 h): at least 104.1%
- CLF concentration ([1]; 37° C., 0.0 hours, plasmatic concentration): 165.1 ± 2.6 ng/mL
- CLF concentration ([1]; 37° C., 0.5 hours): 171.9 ± 6.7 ng/mL
- CLF concentration ([1]; 37° C., 2.0 hours): 180.3 ± 7.4 ng/mL
- CLF concentration ([1]; 37° C., 24.0 hours): 173.8 ± 1.7 ng/mL
- CLF remaining ([1]; 37° C., 0.0 hours): 100.0%
- CLF remaining ([1]; 37° C., 0.5 hours): 104.1%
- CLF remaining ([1]; 37° C., 2.0 hours): 109.2%
- CLF remaining ([1]; 37° C., 24.0 hours): 105.3%
- CLF immunoreactivity lost ([2]; exposed to light, after 48 hrs): long period, with up to 25% of CLF
- % difference (light from dark) ([2]; expected 31.25 ng/ml): 0%
- observed Light ([2]; expected 31.25 ng/ml): 37 ng/mL
- observed dark ([2]; expected 31.25 ng/ml): 37 ng/mL
- % difference (light from dark) ([2]; expected 125 ng/ml): −25%
- observed Light ([2]; expected 125 ng/ml): 107 ng/mL
- observed dark ([2]; expected 125 ng/ml): 143 ng/mL
- % difference (light from dark) ([2]; expected 500 ng/ml): −15%
- observed Light ([2]; expected 500 ng/ml): 423 ng/mL
- observed dark ([2]; expected 500 ng/ml): 495 ng/mL
- CLF immunoreactivity lost on exposure to light ([2]; spiked serum, 48 hrs, room temperature, fluorescent bulb vs dark): up to 25%
- comparison of storage temperatures ([3]; LTD plasma stability samples, 4° C. vs RT (~18-22° C.)): 4 °C storage is slightly better than RT
- percent loss of CLF ([3]; LTD plasma stability samples, 24 hours): approximately 10%
- percent loss of CLF ([3]; PLASMA 2.4, T0): 0%
- percent loss of CLF ([3]; PLASMA 2.4, T30): −11%
- percent loss of CLF ([3]; PLASMA 2.4, T120): −12%
- percent loss of CLF ([3]; PLASMA 2.4, T24 h): −11%
- percent loss of CLF ([3]; PLASMA 2.5.1, T0): 0%
- percent loss of CLF ([3]; PLASMA 2.5.1, T30, 4° C.): 3%
- percent loss of CLF ([3]; PLASMA 2.5.1, T30 RT): −5%
- percent loss of CLF ([3]; PLASMA 2.5.1, T120 4° C.): 1%
- percent loss of CLF ([3]; PLASMA 2.5.1, T120 RT): −6%
- percent loss of CLF ([3]; PLASMA 2.5.1, T24 h 4° C.): −9%
- percent loss of CLF ([3]; PLASMA 2.5.1, T24 h RT): −13%
- percent loss of CLF ([3]; PLASMA 2.5.2, T0): 0%
- percent loss of CLF ([3]; PLASMA 2.5.2, T30, 4° C.): 10%
- percent loss of CLF ([3]; PLASMA 2.5.2, T30 RT): 3%
- percent loss of CLF ([3]; PLASMA 2.5.2, T120 4° C.): 10%
- percent loss of CLF ([3]; PLASMA 2.5.2, T120 RT): 1%
- percent loss of CLF ([3]; PLASMA 2.5.2, T24 h 4° C.): −5%
- percent loss of CLF ([3]; PLASMA 2.5.2, T24 h RT): −14%
